According to patent US20020049223A1, “Quinoline and naphthyridine carboxylic acid antibacterials” (priority 1999, published 2002):

Assays:
Assay in all cases: Assay B: in vitro antibacterial activity, broth microdilution MIC (NCCLS)
Format in all cases: cell-based
[1] = tested on: Haemophilus influenzae DILL AMP R; conditions: Table 2, Assay B, Mueller Hinton broth with yeast extract, hematin and NAD, 20 to 24 hr; code E = Haemophilus influenzae DILL AMP R; unit assumed
Description: (§1) Assay B. Determination of Biological Activity In Vitro Assay of Antibacterial Activity
(§2) Representative compounds of the invention were assayed in vitro for antibacterial activity. The susceptibilities of aerobic, nonfastidious species were determined visually by broth microdilution as described by the National Committee for Clinical Laboratory Standards (NCCLS) (National Committee for Clinical Laboratory Standards. 1997. Methods for dilution antimicrobial susceptibility tests for bacteria that grow aerobically. Approved standard M7-A4. National Committee for Clinical Laboratory Standards. Wayne, Pa.). In brief, serial two-fold dilutions of test compounds were made in cation-adjusted Mueller Hinton broth at two-times the final concentration. Inocula were prepared from overnight cultures of test strains. Tests were inoculated with a suspension of bacteria in Mueller Hinton broth to achieve a final density of approximately 5×10^5 CFU/mL. Tests were incubated at 35° C. in ambient air for 16 to 20 hr. Minimum Inhibitory Concentrations (MICs) were determined as the lowest drug concentration completely inhibiting growth. Ciprofloxacin was included as a control. For testing S. pneumoniae, the cation-adjusted Mueller Hinton broth was supplemented with 3% lysed horse blood and the incubation period was extended to 20 to 24 hr. For testing H. influenzae, the cation-adjusted Mueller Hinton broth was supplemented with 5 g/L yeast extract, […] and 15 mg/L NAD and incubation was extended to 20 to 24 hr..

[2] = tested on: Staphylococcus aureus ATCC 6538P; conditions: Table 2, Assay B, cation-adjusted Mueller Hinton broth, 35° C., 16 to 20 hr; code A = Staphylococcus aureus ATCC 6538P; unit assumed
Description: as §1, §2

Escherichia coli JUHL = conditions: Table 2, Assay B, cation-adjusted Mueller Hinton broth, 35° C., 16 to 20 hr; code D = Escherichia coli JUHL; unit assumed
Description: as §1, §2

[3] = tested on: Enterococcus faecalis PIU 1967; conditions: Table 2, Assay B, cation-adjusted Mueller Hinton broth, 35° C., 16 to 20 hr; code B = Enterococcus faecalis PIU 1967; unit assumed
Description: as §1, §2

[4] = tested on: Streptococcus pneumoniae ATCC 6303; conditions: Table 2, Assay B, Mueller Hinton broth with 3% lysed horse blood, 20 to 24 hr; code F = Streptococcus pneumoniae ATCC 6303; unit assumed
Description: as §1, §2

| SMILES | Antibacterial Activity (MIC's), E [1] | Antibacterial Activity (MIC's), A [2] | Antibacterial Activity (MIC's), D (Escherichia coli JUHL) | Antibacterial Activity (MIC's), B [3] | Antibacterial Activity (MIC's), F [4] |
| --- | --- | --- | --- | --- | --- |
| COc1c(-c2cc3c(s2)CCC(N)C3)ccc2c(=O)c(C(=O)O)cn(C3CC3)c12.Cl (stereo not shown) [Example 76, 7-(5-amino-4,5,6,7-tetrahydro-1-benzothien-2-yl)-1-cyclopropyl-8-methoxy-4-oxo-1,4-dihydro-3-quinolinecarboxylic acid hydrochloride] | 0.03 µg/mL | 0.015 µg/mL | 0.06 µg/mL | 0.06 µg/mL | 0.03 µg/mL |
| COc1c(-c2cc3c(s2)CC(C)(C)CC3N)ccc2c(=O)c(C(=O)O)cn(C3CC3)c12.Cl (stereo not shown) [Example 238, 7-(4-amino-6,6-dimethyl-4,5,6,7-tetrahydro-1-benzothien-2-yl)-1-cyclopropyl-8-methoxy-4-oxo-1,4-dihydro-3-quinolinecarboxylic acid hydrochloride] | 0.125 µg/mL | 0.03 µg/mL | 0.25 µg/mL | 0.5 µg/mL | 0.06 µg/mL |
| Cc1c(-c2cc3c(s2)CCCC3O)c(F)cc2c(=O)c(C(=O)O)cn(C3CC3)c12 (stereo not shown) [Example 316, 1-cyclopropyl-6-fluoro-7-(4-hydroxy-4,5,6,7-tetrahydro-1-benzothien-2-yl)-8-methyl-4-oxo-1,4-dihydroquinoline-3-carboxylic acid] | ≤ 0.004 µg/mL | ≤ 0.004 µg/mL | 0.06 µg/mL | 0.06 µg/mL | 0.03 µg/mL |
| CNC1CCCc2cc(-c3c(F)cc4c(=O)c(C(=O)O)cn(C5CC5)c4c3OC)sc21.Cl (stereo not shown) [Example 246, 1-cyclopropyl-6-fluoro-8-methoxy-7-(7-(methylamino)-4,5,6,7-tetrhydro-1-benzothien-2-yl)-4-oxo-1,4-dihydro-3-quinolinecarboxiylic acid hydrochloride] | 0.03 µg/mL | 0.004 µg/mL | 0.25 µg/mL | 0.25 µg/mL | 0.06 µg/mL |
| COc1c(-c2cc3c(s2)CCCC3CN(C)C)ccc2c(=O)c(C(=O)O)cn(C3CC3)c12 (stereo not shown) [Example 127, 1-cyclopropyl-7-(4-((dimethylamino)methyl)-4,5,6,7-tetrahydro-1-benzothien-2-yl)-8-methoxy-4-oxo-1,4-dihydro-3-quinolinecarboxylic acid] | 0.125 µg/mL | 0.5 µg/mL | 1 µg/mL | 0.25 µg/mL | 0.5 µg/mL |
| COc1c(-c2cc3c(s2)C(N)C(C)CC3)ccc2c(=O)c(C(=O)O)cn(C3CC3)c12.Cl (stereo not shown) [Example 235, 7-(7-amino-6-methyl-4,5,6,7-tetrahydro-1-benzothien-2-yl)-1-cyclopropyl-8-methoxy-4-oxo-1,4-dihydro-3-quinolinecarboxylic acid hydrochloride] | 0.06 µg/mL | 0.015 µg/mL | 0.25 µg/mL | 0.25 µg/mL | 0.06 µg/mL |
| COc1c(-c2cc3c(s2)CCCC3=NOCc2ccccc2)ccc2c(=O)c(C(=O)O)cn(C3CC3)c12 [Example 73] | 0.03 µg/mL | 0.015 µg/mL | 0.5 µg/mL | 0.06 µg/mL | 0.06 µg/mL |
| CNC1CCCc2sc(-c3c(F)cc4c(=O)c(C(=O)O)cn(C5CC5)c4c3C)cc21.Cl (stereo not shown) [Example 317, 1-cyclopropyl-6-fluoro-8-methyl-7-(4-(methylamino)-4,5,6,7-tetrahydro-1-benzothien-2-yl)-4-oxo-1,4-dihydroquinoline-3-carboxylic acid hydrochloride] | 0.03 µg/mL | 0.03 µg/mL | 0.06 µg/mL | 0.06 µg/mL | 0.03 µg/mL |
| COc1c(-c2cc3c(s2)C(O)C2(CC3)CC2)ccc2c(=O)c(C(=O)O)cn(C3CC3)c12 (stereo not shown) [Example 267, 7-(7-hydroxy-6-spirocyclopropyl-4,5,6,7-tetrahydro-1-benzothien-2-yl)-1-cyclopropyl-8-methoxy-4-oxo-1,4-dihydroquinoline-3-carboxylic acid] | 0.06 µg/mL | ≤ 0.004 µg/mL | 0.5 µg/mL | 0.125 µg/mL | 0.25 µg/mL |
| COc1c(-c2cc3c(s2)C(O)CNC3)ccc2c(=O)c(C(=O)O)cn(C3CC3)c12 (stereo not shown) [Example 202, 1-cyclopropyl-7-(7-hydroxy-4,5,6,7-tetrahydrothieno[3,2-c]pyridin-2-yl)-8-methoxy-4-oxo-1,4-dihydro-3-quinolinecarboxylic acid] | 0.015 µg/mL | 0.125 µg/mL | 0.125 µg/mL | 0.5 µg/mL | 0.25 µg/mL |
| Cl.NC1CCCc2sc(-c3nc4c(cc3F)c(=O)c(C(=O)O)cn4C3CC3)cc21 (stereo not shown) [Example 156, 7-(4-amino-4,5,6,7-tetrahydro-1-benzothien-2-yl)-1-cyclopropyl-6-fluoro-4-oxo-1,4-dihydro[1,8]naphthyridine-3-carboxylic acid hydrochloride] | 0.015 µg/mL | 0.03 µg/mL | 0.03 µg/mL | 0.125 µg/mL | 0.06 µg/mL |
| COc1c(-c2cc3c(s2)C(O)C(F)CC3)ccc2c(=O)c(C(=O)O)cn(C3CC3)c12 (stereo not shown) [Example 240, 1-cyclopropyl-7-(6-fluoro-7-hydroxy-4,5,6,7-tetrahydro-1-benzothien-2-yl)-8-methoxy-4-oxo-1,4-dihydro-3-quinolinecarboxylic acid] | 0.03 µg/mL | 0.004 µg/mL | 0.5 µg/mL | 0.06 µg/mL | 1 µg/mL |
| O=C(O)c1cn(C2CC2)c2cc(-c3cc4c(s3)C(O)CCC4)ccc2c1=O (stereo not shown) [Example 280, 1-cyclopropyl-7-(7-hydroxy-4,5,6,7-tetrahydro-1-benzothien-2-yl)-4-oxo-1,4-dihydroquinoline-3-carboxylic acid] | 0.06 µg/mL | 0.015 µg/mL | 0.125 µg/mL | 0.125 µg/mL | 0.25 µg/mL |
| O=C(O)c1cn(C2CC2)c2c(OC(F)F)c(-c3cc4c(s3)CCCC4O)ccc2c1=O (stereo not shown) [Example 99, 1-cyclopropyl-8-(difluoromethoxy)-7-(4-hydroxy-4,5,6,7-tetrahydro-1-benzothien-2-yl)-4-oxo-1,4-dihydro-3-quinolinecarboxylic acid] | 0.015 µg/mL | 0.015 µg/mL | 0.25 µg/mL | 0.125 µg/mL | 0.06 µg/mL |
| CNC(=S)NN=C1CCCc2sc(-c3ccc4c(=O)c(C(=O)O)cn(C5CC5)c4c3OC)cc21 [Example 85] | 0.125 µg/mL | 0.03 µg/mL | 0.5 µg/mL | 0.25 µg/mL | 0.125 µg/mL |
| COc1c(-c2cc3c(s2)CCCC3CN2CCOCC2)ccc2c(=O)c(C(=O)O)cn(C3CC3)c12 (stereo not shown) [Example 126, 1-cyclopropyl-8-methoxy-7-(4-(4-morpholinylmethyl)-4,5,6,7-tetrahydro-1-benzothien-2-yl)-4-oxo-1,4-dihydro-3-quinolinecarboxylic acid] | 1 µg/mL | 0.004 µg/mL | 16 µg/mL | 0.5 µg/mL | 0.5 µg/mL |
| COc1c(-c2cc3c(s2)CCCC3=NOCc2ccncc2)ccc2c(=O)c(C(=O)O)cn(C3CC3)c12 [Example 131, 1-cyclopropyl-8-methoxy-4-oxo-7-((4E/Z)-4-((4-pyridinylmethoxy)imino)-4,5,6,7-tetrahydro-1-benzothien-2-yl)-1,4-dihydro-3-quinolinecarboxylic acid] | 0.125 µg/mL | – | 1 µg/mL | 0.5 µg/mL | 0.5 µg/mL |
| COc1c(-c2cc3c(s2)CCCC3CN)ccc2c(=O)c(C(=O)O)cn(C3CC3)c12 (stereo not shown) [Example 130, 7-(4-(aminomethyl)-4,5,6,7-tetrahydro-1-benzothien-2-yl)-1-cyclopropyl-8-methoxy-4-oxo-1,4-dihydro-3-quinolinecarboxylic acid] | 0.015 µg/mL | – | 0.06 µg/mL | 0.125 µg/mL | 0.125 µg/mL |
